Values quoted from earlier work, collected in PMC9516282, “Low prevalence of influenza A strains with resistance markers in Brazil during 2017–2019 seasons” (Frontiers in Public Health, 2022).

System: PA:E199G
Design: method as in PMID 30670144
Conditions: virus with PA:E199G substitution

COC(=O)OCOc1c2n(ccc1=O)N([C@@H]1c3ccccc3SCc3c1ccc(F)c3F)[C@@H]1COCCN1C2=O [BXM, baloxavir marboxil]
RI (reduced inhibition) to BXM: 4.5 fold
